In brackets after ≈: the same amount, converted by molar mass.
Columns and labels:
Rattus norvegicus = conditions: for LD50: acute, oral, mortality
Anas platyrhynchos = conditions: short-term; oral; feed; mortality
Apis mellifera = conditions: acute, duration: 48 hours, mortality
Bibionidae = conditions: chronic/long-term; duration: 28 days; development
Canidae = conditions: oral, Dog Other, hematological
Daphnia magna = conditions: chronic/long-term; duration: 21 days; reproduction

SMILES | LD50 (Rattus norvegicus) [mg/kg] | LC50 (Anas platyrhynchos) [mg/kg-day] | LD50 (Apis mellifera; dermal) [µg/piece] | LD50 (Apis mellifera; oral, unspecified) [µg/piece] | NOEC (Bibionidae) [mg/kg] | NOAEL (Canidae; chronic, duration: 52 weeks) [mg/kg-day] | NOAEL (Canidae; subchronic, duration: 90 days) [mg/kg-day] | LC50 (Colinus virginianus; acute, oral, diet, mortality) [mg/kg-day] | LD50 (Colinus virginianus; acute, oral, mortality) [mg/kg] | NOEC (Colinus virginianus; reproduction developmental, reproduction) [mg/kg-day] | NOEC (Daphnia magna) [mg/L] | LC50 (Oncorhynchus mykiss; acute, duration: 96 hours, mortality) [µg/mL] | NOEC (Oncorhynchus mykiss; chronic/long-term, duration: 28 days, growth) [mg/L] | NOEL (Rattus norvegicus; reproduction developmental, histopathology: nonneoplastic) [mg/kg-day] | LC50 (Tagia sp.; acute, duration: 14 days, mortality) [mg/kg] | NOEC (Tagia sp.; chronic/long-term, duration: 8 weeks, reproduction) [mg/kg]
Cc1cc(C)cc(C(=O)N(NC(=O)c2ccc3c(c2C)C(O)CCO3)C(C)(C)C)c1 (configuration not stated) [Chromafenozide metabolite (M 010)] | > 2000 |  |  |  |  |  |  |  |  |  |  |  |  |  |  | 
Cc1cc(C)cc(C(=O)N(NC(=O)c2ccc3c(c2C)CCCO3)C(C)(C)C)c1 [Chromafenozide] | > 5000 | > 2160 | > 100 | > 133 | 0.047 | 27 | 52 | > 1840 | > 2000 | 79 | 0.84 | 4.5 (≈ 11.4 µM) | 0.96 | 128 | > 1000 | 49
